The values below come from ChEMBL document CHEMBL3232891, “Medicinal attributes of pyrazolo[3,4-d]pyrimidines: a review” (Bioorg Med Chem, 2013).

The IC50 is the concentration needed to halve the response being measured. Read a low IC50 as greater potency in that assay. By MIC is commonly meant the least concentration at which growth counts as inhibited. For orientation: GI50 means the concentration giving 50% growth inhibition. A higher GI50 goes with less potent growth inhibition. As usually defined, the inhibition is the relative decrease from the control value, in per cent.

One test concerns Daoy. As to the kind of experiment: Cytotoxicity against human DaOY cells after 48 hrs by MTS assay. The format is functional, cell-based. Background: Tetrazolium assays rely on reduction of a dye to a coloured formazan, in cell work by metabolically active cells.
For a further test, the system named is Staphylococcus aureus. As to the kind of experiment: Antibacterial activity against Staphylococcus aureus. The format is functional.
The test system of a further test is Enterococcus raffinosus. Briefly: Antibacterial activity against Enterococcus raffinosus. Type of test: functional.
The next test deals with NCI-H226. Briefly: Growth inhibition of human NCI-H226 cells. Type of test: functional.
For a further test, the system named is Jurkat. As to the kind of experiment: Growth inhibition of human Jurkat cells. Type of test: functional.
Test [1] in a line: Growth inhibition of human NPC-TW01 cells. The format is functional.
In test [2] the test system is Mycobacterium tuberculosis. Briefly: Antitubercular activity against Mycobacterium tuberculosis assessed as growth inhibition. Type of test: functional.
Test [3] can be described thus: Cytotoxicity against human Saos2 cells assessed as inhibition of cell viability at 25 uM after 48 hrs by MTT assay relative to control. The format is functional. Conditions: SAOS-2, 48 h.
The nature of test [4]: Cytotoxicity against human Saos2 cells after 48 hrs by MTT assay. The format is functional, cell-based. Conditions: SAOS-2, 48 h.
The test system of the next test is HL-60. Briefly: Cytotoxicity against human HL60 cells by MTT assay. Type of test: functional, cell-based.

Molecules are shown by their SMILES. Values after ≈ are worked out from the molar mass of the structure shown. Some results are limits rather than exact numbers.

For `Fc1cccc(CNc2ncnc3c2cnn3CC(Cl)c2ccc(Br)cc2)c1` (configuration not stated), in the test on Daoy, 3.5 µM corresponded to half-maximal inhibition (IC50).

Regarding `Nc1n[nH]c2nc(-c3ccccc3)nc(-c3ccc(Br)cc3)c12`, the MIC with Staphylococcus aureus amounted to 3.8 µM (≈ 1.39 µg/mL); with Enterococcus raffinosus, 12.3 µM (≈ 4.5 µg/mL).

As to `Clc1ccc(-c2nn(-c3ccccc3)c3ncncc23)cc1`, the values for the GI50 (in the test with NCI-H226; in the test on Jurkat; in [1]) were 18 µM, 36 µM and 23 µM, respectively.

Consider `Cc1ccc(-c2nn(-c3ccc4ccccc4n3)c3ncncc23)cc1`, for which the GI50 with NCI-H226 turned out to be 29 µM; with Jurkat it was 54 µM; in [1], 30 µM.

For the molecule `Clc1ccc(-c2nn(-c3ccc4ccccc4n3)c3ncncc23)cc1`, the values for the GI50 (in the test with NCI-H226; in the test on Jurkat; in [1]) were 39 µM, 69 µM and 35 µM, respectively.

As to `COc1ccc(-c2nn(-c3ccc4ccccc4n3)c3ncncc23)cc1`, the GI50 with NCI-H226 was 37 µM; in the test on Jurkat, above 100 µM; in test [1], 36 µM.

For `COc1ccc(-c2nc(-c3ccccc3)nc3[nH]nc(N)c23)cc1`, the MIC was 4.2 µM (≈ 1.33 µg/mL) in the test on Staphylococcus aureus and 14.2 µM (≈ 4.51 µg/mL) against Enterococcus raffinosus.

Take `Nc1n[nH]c2nc(-c3ccccc3)nc(-c3ccc(Cl)cc3)c12`: the MIC with Staphylococcus aureus was 190 µM (≈ 61.2 µg/mL); in the test with Enterococcus raffinosus it was above 300 µM.

On to `Nc1ccc(-c2nc(-c3ccccc3)nc3[nH]nc(N)c23)cc1`, for which the MIC against Staphylococcus aureus was 34.5 µM (≈ 10.4 µg/mL); in the test with Enterococcus raffinosus it was 82.8 µM (≈ 25 µg/mL).

`C#CCn1ncc2c(SCc3ccccc3)ncnc21`: the “inhibition (INH)” value in test [2] is reported as above 90%. Besides, in test [2] (Mycobacterium tuberculosis), the MIC is 12.5 µg/mL (≈ 44.6 µM).

Consider `CSc1nc(Nc2cccc(Cl)c2)c2cnn(CC(Cl)c3ccccc3)c2n1` (configuration not stated), for which the inhibition at 25 µM in test [3] turned out to be 93.3%. In addition, in test [4], the IC50 was determined as 11.6 µM.

In the test on Daoy, `Fc1ccc(CNc2ncnc3c2cnn3CC(Cl)c2ccc(Cl)cc2)cc1` (configuration not stated) showed an IC50 of 1.72 µM.

Regarding `CC(C)(C)n1nc(-c2ccc(Cl)cc2)c2c(N)ncnc21`, the inhibition at 25 µM in [3] is 85.3%. In [4], this molecule gave an IC50 of 8.07 µM.

As to `CCCCNc1ncnc2c1cnn2CC(Cl)c1ccccc1` (configuration not stated), the IC50 in the test with Daoy is 6.24 µM; in test [4] it was 14.6 µM. The inhibition at 25 µM in [3] turned out to be 71.1%.

In the test on HL-60, `COc1cccc2c1C(=O)c1c(O)c3c(c(O)c1C2=O)C[C@@](O)(C(=O)CO)C[C@@H]3O[C@H]1C[C@H](N)[C@H](O)[C@H](C)O1` [DOXORUBICIN] had an IC50 of 0.55 µM.
